Test results reported in the METLIN SMRT retention time set (Domingo-Almenara et al. 2019).

Experiment: gradient 5% acetonitrile 3 min, to 50% in 2 min, to 85% in 15 min, held 3 min, 100 µL/min
Details: column: Zorbax Extend-C18 2.1 x 50 mm; eluents: water / acetonitrile, 0.1% formic acid
In short: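 Each retention time is based on an adduct peak selected computationally and verified by manual inspection. Measurements used HPLC–quadrupole time-of-flight mass spectrometry in positive and negative ionization mode on mixtures of ~100 pure standards. Chromatography ran on a Zorbax Extend-C18 column (2.1 × 50 mm, 1.8 μm) at 100 μL/min with water and acetonitrile, each containing 0.1% formic acid, and dead and dwell volumes of 40 μL and 900 μL.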

Structure (SMILES) | RP-LC retention time [s]
Cc1oc(-c2[nH]ncc2C(=O)N2CCOCC2)cc1S(=O)(=O)Nc1ccccc1 | 655
COC(=O)c1cc2c(=O)n(-c3ccc(OC)cc3OC)ccc2nc1C | 803
Cc1ccc(-c2noc(Cn3ccn(Cc4ccc(Cl)cc4)c(=O)c3=O)n2)cc1 | 951
Fc1ccccc1-c1noc(Cc2nnc(-c3cccc(Br)c3)o2)n1 | 1110
CCn1ccc2oc(C)c(C(=O)N3CCN(c4ccc(OC)cc4)CC3)c2c1=O | 682
O=S(=O)(c1ccc(Cl)s1)N1CCC(c2nnc(-c3ccco3)o2)CC1 | 868
Cc1cc(C(=O)NCCCN2CCN(c3cc(Cl)ccc3C)CC2)n(-c2ccccc2)n1 | 726
Cc1cccnc1NC(=O)C1c2ccccc2C(=O)N(Cc2ccccc2)C12CCCC2 (stereo not drawn) | 782
CCc1cccc(NS(=O)(=O)c2cc(-c3c(CC)noc3NC(C)=O)ccc2C)c1 | 900
CC(C)(O)CC(=O)NCCn1ccc2ncnc(Nc3ccc(Oc4cccc(C(F)(F)F)c4)c(Cl)c3)c21 | 802
CNC(=O)Oc1ccc2c(c1)[C@]1(C)CCN(C)C1N2C (stereo partly drawn) | 594
O=C(NCc1ccco1)c1nc2ccccn2c1-c1ccsc1 | 761
COc1cc(NC(=O)N2CCN(c3cc(C)nc(N4CCCC4)n3)CC2)cc(OC)c1 | 676
CCNC(=O)N1CC(Oc2cccc(-c3nc(C)no3)c2)C1 | 705
O=C(Cn1nc2c(cc1=O)CCCC2)Nc1nc(-c2ccc3c(c2)OCO3)cs1 | 851
CC(=O)Nc1ccc(CCc2nc3ccc(C(=O)NC4CC4)cc3[nH]2)cc1 | 893
Cc1ccc(-n2cc3c(N4CCCC(C(=O)NC(C)c5ccc(F)cc5)C4)ncnc3n2)cc1 (stereo not drawn) | 741
CCN(c1ccccc1C)S(=O)(=O)c1cc(-c2[nH]ncc2C(=O)N(C)C)oc1C | 782
Fc1ccc(Cc2nc3nccc(-c4cc5ccccc5o4)n3n2)cc1 | 1130

Structure (SMILES) | RP-LC retention time [s]
CC(C)Cn1c(=O)c(C(=O)NCCc2ccccn2)nc2cccnc21 | 604
CCCCNC(=O)Cc1nnc(-c2cccc(F)c2)o1 | 731
Cc1ccccc1S(=O)(=O)N1CCn2c(nn(CC3CC3)c2=O)C1 | 766
Cc1cc(C)cc(NC(=O)Cc2cn(C)c3ncccc23)c1 | 689
CCOC(=O)Cc1csc(NC(=O)c2csc(Nc3cccc(Cl)c3)n2)n1 | 952
CC(C)N1CCN(C(=O)CN2CCN(Cc3ccccc3)C2=O)CC1 | 565
CCc1nc(-c2csc(S(=O)(=O)N3CCCC(C(=O)Nc4cccc(C)c4)C3)c2)no1 (stereo not drawn) | 983
CCCCOc1ccc(-c2nc(C3CC(=O)N(c4ccc(CC)cc4)C3)no2)cc1 (stereo not drawn) | 1390
CC1(C)Cc2cccc(OCc3ccc(C(=O)NCc4ccccn4)cc3)c2O1 | 663
N#CCn1cccc1-c1nc(-c2cccnc2)no1 | 776
CC(C)(C)NC(=O)N1CCC2(CC1)CN(c1ccccc1)C2=O | 788
O=C(NCc1ccco1)C1CCN(c2nc3ccccc3nc2C(F)(F)F)CC1 | 1000
O=C(NCCc1csc(-c2ccccc2)n1)C1CCN(S(=O)(=O)c2ccc(Cl)s2)CC1 | 1010
Cc1nc2c(NC(=O)c3ccccn3)cccn2n1 | 763
O=C(COc1ccc(F)cc1)N1[C@H]2CC[C@@H]1c1cnc(-c3ccc(F)cc3)nc1C2 | 760
Cc1nn(CC(=O)NCc2ccc(F)cc2)c(=O)c2nc(-c3ccccc3)sc12 | 872
COc1ccc2c(c1)C1(CCN(C(=O)NC(C)C)C1)C(=O)N2C (stereo not drawn) | 681
Cc1nn(-c2ccc(N3CCCCC3)nn2)c(C)c1CCC(=O)N1CCN(c2ncccn2)CC1 | 656
O=C(c1cccn1-c1nnc(N2CCOCC2)s1)N1CCCCCC1 | 747

Structure (SMILES) | RP-LC retention time [s]
O=C(c1ccco1)N1CCc2c([nH]c3ccccc23)C1c1ccc(Cl)cc1 (stereo not drawn) | 1170
CC(=O)N1c2ccc(S(=O)(=O)N3CCCC3)cc2CC1C(=O)NCCc1ccc(C)cc1 (stereo not drawn) | 797
O=C(Nc1ccc2nc3n(c(=O)c2c1)CCCCC3)C(=O)N1CCCC1 | 684
COc1ccc(-c2nc(C3CC(=O)N(c4ccc(F)cc4)C3)no2)cc1OC (stereo not drawn) | 884
NS(=O)(=O)OC[C@@H]1C[C@@H](n2ccc3c(N[C@H]4CCc5ccccc54)ncnc32)C[C@H]1O | 724
O=C(Nc1ccc(Br)cc1)C1CCCN(c2ncc(-c3ccccc3)cn2)C1 (stereo not drawn) | 1240
CCOc1ccc(-c2[nH]ncc2CNS(=O)(=O)Cc2c(F)cccc2Cl)cc1 | 882
COCCCNC(=O)C1(C)Cn2nc(-c3ccccc3)cc2C(=O)N1Cc1cc(OC)ccc1OC (stereo not drawn) | 903
Cc1nnc(NC(=O)c2ccc(S(=O)(=O)NCc3ccccn3)o2)s1 | 581
CCOC(=O)c1nc(Nc2cc(Cl)c(OC)cc2OC)c2ccccc2n1 | 964
CCC1CCCCN1C(=O)c1cnc2nc(C)ccc2c1Nc1ccc2c(c1)OCO2 (stereo not drawn) | 623
COc1ccc(-c2c(C)noc2NC(C)=O)cc1S(=O)(=O)Nc1ccc(F)c(F)c1 | 748
CNC(=O)N1CCc2ccc(C(=O)NC(C)(C)C)cc21 | 661
O=C(Nc1ccc(N2CCOCC2)cc1)c1cn(-c2ccc(F)cc2)nn1 | 828
COc1cc(-c2nc(-c3ccc4c(c3)oc(=O)n4C(C)C)no2)cc(OC)c1OC | 1110
Cc1ccc(-c2nc3ncccn3c2NCc2ccc(F)cc2)cc1C | 789
O=C(NCc1ccco1)C1CC(=O)N(c2ccc3c(c2)CCN3C(=O)C2CCC2)C1 (stereo not drawn) | 734
Cc1ccc(-c2nnc(-c3cccc(S(=O)(=O)N4CCC(C(=O)O)CC4)c3)o2)cc1 | 860

Results, then the compound that gave them:

RP-LC retention time [s] | Structure (SMILES)
893 | Cc1ccc(C(=O)Nc2ccc(N3CCN(c4ccccc4)C3=O)nc2)s1
1350 | O=S(=O)(c1cccc(-c2nc(-c3ccccc3)no2)c1)N1CCCc2ccccc21
716 | COC(=O)c1cnc2nc(C)ccc2c1Nc1cc(Cl)ccc1C
906 | COc1ccc(NC(=O)N2CCc3nc(-c4ccc(F)cc4)ncc3C2)cc1
968 | CCOc1ccccc1CNC(=O)C1CCCN(c2ccc(=O)n(-c3cccc(Cl)c3)n2)C1 (stereo not drawn)
597 | Cc1nn(CC(=O)NCCCN2CCc3ccccc3C2)c(=O)c2noc(C)c12
848 | O=C(NCc1nc(-c2ccc(NS(=O)(=O)c3cccs3)cc2)no1)c1ccccc1
671 | Cc1cc(C)cc(NC(=O)N2CCCC(Cn3c(C)nc4cccnc43)C2)c1 (stereo not drawn)
1030 | COc1ccc(S(=O)(=O)Cc2nc(-c3ccc(Cl)cc3)no2)cc1
635 | CCOC(=O)c1c(C)[nH]c(C(=O)N2CCC(C(C)C(=O)NCc3ccc(N(C)C)cc3)CC2)c1C (stereo not drawn)
794 | CCCC(=O)Nc1nnc(SCc2nnc(-c3ccc4c(c3)OCO4)o2)s1
1110 | Cc1cc(C)cc(NC(=O)Cn2nc(N3CCCCCC3)c3ccccc3c2=O)c1
583 | CC(C)Oc1cncc(C(N)=O)c1
540 | Cn1c(C2CCN(C(=O)c3ccc(Cl)cc3)C2)nc2ccncc21 (stereo not drawn)
803 | CCCCc1ccc(NC(=O)CSc2nccc(N3CCCC3)n2)cc1
777 | O=C(Nc1ccc(-n2cnnn2)cc1)c1csc(Nc2ccccc2)n1

RP-LC retention time [s] | Structure (SMILES)
1080 | Cc1cc(C)cc(-c2nnc(Cc3nc(-c4ccccc4F)no3)o2)c1
1030 | CCOc1ccc(CNC(=O)C2CCCN(c3nccnc3Sc3ccccc3)C2)cc1OCC (stereo not drawn)
725 | Cc1oc(-c2[nH]ncc2C(=O)N(C)C)cc1S(=O)(=O)NCc1ccc(Cl)cc1
610 | Cc1cccn2c(=O)nc(SCC(=O)NCc3ccco3)nc12
645 | Cc1ccoc1C(=O)N1CCC2(CCC2O)CC1 (stereo not drawn)
1300 | CCCC(NC(=O)C1CCCN(c2nc3c(s2)c(C)nn3-c2ccc(C)cc2)C1)c1cccs1 (stereo not drawn)
838 | Cc1nc(N2CCN(c3ccccn3)CC2)nc2c1C(=O)CC(c1cccc(Cl)c1)C2 (stereo not drawn)
989 | CC(C)N1C(=O)C(C)(C(=O)Nc2ccc(F)cc2F)Oc2cccnc21 (stereo not drawn)
728 | CN(C)C(CNC(=O)c1cc(-c2ccc(Cl)cc2)on1)c1cccs1 (stereo not drawn)
772 | Cc1nnc(-c2nnc(NCC3CCCCC3)c3ccccc23)o1
964 | O=C(NCc1ccco1)C1CCN(c2ncccc2-c2nc(-c3ccccc3)no2)CC1
903 | COc1ccc(OC)c(S(=O)(=O)N2CCCC(C)(C(=O)NCc3ccccc3)C2)c1 (stereo not drawn)
615 | COc1ccc(N2CCN(c3nc(C(=O)NCCN4CCOCC4)cs3)CC2)cc1
588 | CC(C)(C)CC(C)(C)NCC(O)COC(C)(C)C (stereo not drawn)
1070 | CCn1cc(C2=CCN(S(=O)(=O)c3cccc(Cl)c3)CC2)c2cccnc21
913 | CCN(Cc1ccccc1)S(=O)(=O)c1cc(-c2nnc(C3CCC3)o2)co1
